Data as given in patent US9006212B2, “Compositions and methods for pest control” (Massachusetts Institute of Technology, priority 2009, dated 2015).

Assays:
tGNBP-2 [1] = assay: β(1,3)-glucanase activity assay (flow cytometric microsphere assay, zymogram); assay type: biochemical, N. corniger; conditions: dose/response, FIG. 5C
Procedure: (§1) FIG. 2 provides results from a microsphere-based flow cytometric assay for β(1,3)-glucanase activity. Laminarin was labeled at the reducing end with rhodamine green X-succinyl ester, stably adsorbed on 3.0μ-diameter polystyrene microspheres in carbonate/bicarbonate buffer at pH=9.6 and washed in 100 mM sodium acetate pH 5.5. Samples were then incubated with the fluorescent microspheres for varying time periods starting from 15 min and analyzed by flow cytometry. Purified β(1,3)-glucanase at 100 μg/mL (0.1 mU/mL) and sodium acetate buffer alone were used as positive and negative controls, respectively. Finally, fluorescence data were transformed to % activity and plotted vs. samples or concentrations. β(1,3)-glucanase activity was measured by a gel electrophoresis assay (39) and by a flow cytometric method developed (FIG. 2). Briefly, samples were run on Carboxymethyl Curdlan REmazol Brilliant Blue (CN-Curdlan-RBB, Lowe Biochemica, Germany). […] Samples were mixed with 1 μL of the microsphere suspension, incubated for 15-30 minutes at 37° C. and analyzed by flow cytometry. Commercially available purified β(1,3)-glucanase from Helix pomatia or Bacilus subtilis was used at 0.1 mU/mL as positive control and results were expressed as % activity of this control.

termite gut symbionts = conditions: reference 34; cited from earlier work
tGNBP-2 expression [2] = assay: Induction of tGNBP-2 by laminarin challenge on isolated termite cells, Western blot; assay type: cell-based, N. corniger; conditions: 20 mM, FIG. 5E
Procedure: N. corniger workers, large workers or soldiers (whole termites or isolated tissues) were surface sterilized (brief wash with 5% hypochlorite and 3 washes with sterile water) and homogenized in acetate buffer (200 mM, pH 5.0, 4 μL/termite) with Biomasher® columns (pore size 80-145μ, […], San Carlos, Calif.) according to the manufacturer's instructions. Cuticular washes were prepared by gently agitating chilled workers in 0.1% Tween 80 for 5 seconds (10 μL/worker). Wash samples were concentrated with a P10 Microcon® filter (Millipore, Billerica, Mass.). Termite hemocytes were collected from hemolymph drawn from 10 chilled N. corniger workers (1 μL/termite) using a micropipette and kept in ice-cold Burns-Tracy saline as described previously (37). Whole cell preparations were obtained by gentle trituration of termites in ice-cold Burns-Tracy saline. Anti-tGNBP-2 antibodies were raised in rabbits and purified by standard methods (GenScript, Piscataway, N.J.). Antibodies were covalently linked to 1.0μ diameter Dynabeads® MyOneTM carboxylic acid functionalized magnetic beads (Invitrogen) according to the manufacturer's instructions. Fresh termite extract was diluted 1:1 with IP buffer (25 mM Tris-HCl pH 7.6, 150 mM NaCl, 1% v/v NP-40, 1% v/v protease inhibitor cocktail), and incubated with beads for 1 hour at RT. […]

M. anisopliae conidia = assay: Antifungal assays and combinatorial cytotoxicity mapping on conidia; assay type: cell-based, Metarhizium anisopliae
Procedure: This mix was incubated for 18-24 hours at 25° C., then plated onto potato dextrose agar 100×15 mm plates and supplemented with 50 μg/mL ampicillin CFUs were counted following a 4-day incubation at 25° C. Femtoliter changes in conidial cell volume were directly measured by flow cytometry. Samples of M. anisopliae conidia in sodium acetate (0.1M, pH 5.5) were incubated in 384 well plates with samples from HPLC fractions in different combinations (F1+F1, F1+F2, F1+F3 . . . F2+F2, F2+F3 . . . F3+F3 . . . , 10 μL of each fraction) overnight at 25° C. and analyzed by flow cytometry. tGNBP-2 was depleted from 250 μL of each fraction as described above, and supernatants were collected and used for the assay.

[3] = system: SAPK/JNK signaling in hemocytes; assay: Intracellular flow cytometry for SAPK/JNK phosphorylation in termite hemocytes; assay type: cell-based, N. corniger
Procedure: N. corniger workers, large workers or soldiers (whole termites or isolated tissues) were surface sterilized (brief wash with 5% hypochlorite and 3 washes with sterile water) and homogenized in acetate buffer (200 mM, pH 5.0, 4 μL/termite) with Biomasher® columns (pore size 80-145μ, […], San Carlos, Calif.) according to the manufacturer's instructions. Cuticular washes were prepared by gently agitating chilled workers in 0.1% Tween 80 for 5 seconds (10 μL/worker). Wash samples were concentrated with a P10 Microcon® filter (Millipore, Billerica, Mass.). Termite hemocytes were collected from hemolymph drawn from 10 chilled N. corniger workers (1 μL/termite) using a micropipette and kept in ice-cold Burns-Tracy saline as described previously (37). Whole cell preparations were obtained by gentle trituration of termites in ice-cold Burns-Tracy saline. Hemocyte staining was performed in 0.1% w/v BSA, 0.01% w/v NaN3 in PBS, 30 min on ice per antibody with a single wash with buffer between antibodies (38). Primary antibodies: anti-tGNBP-2 (5 μg/mL) or rabbit IgG (5 μg/mL, Sigma, St. Louis, Mo.); secondary antibody: anti-rabbit PE (1:400, Invitrogen, Carlsbad, Calif.). […] Flow cytometry was performed on a Beckman-Coulter Cell Lab QuantaTM SC MPL-automated flow cytometer and analyzed with Quanta AnalysisTM software.

[4] = system: termites infected with M. anisopliae; assay: In-vivo survival and exposure assays; set-up: species or system N. corniger
Procedure: Conidia (approx. 3×10^7/mL) were centrifuged at 12,000×g for 1 minute and then suspended in 600 μL 0.1% Tween 80 by vortexing. Two groups of 12 large workers were exposed to filter paper (Watman 5) moistened with these suspensions in 35×15 mm petri dishes for 20 hours. The filter paper was replaced with sterile water-moistened filter paper and dead termites were removed after a daily census of survivorship. tGNBP-2 treatment was performed with conidia suspended in a sample of the immunoprecipitated protein overnight at 25° C., followed by extensive washing in PBS containing 0.1% Tween 80. Dead termites were removed daily, surface sterilized with 70% ethanol and incubated in sterile plates at RT for 4 days for post mortem analysis. For exposure to laminarin or LPS, filter papers were moistened with 300 μL of 0.5 mg/mL or 5 mg/mL solutions of either carbohydrate. Termites were kept on moist filter paper for 24 hours prior to exposure with conidia (10^7/mL). Controls included termites that were not exposed to sugars and/or conidia (0.1% Tween 80). Data were analyzed by Mann-Whitney U test and Wilcoxon Signed Rank tests with Bonferroni corrections for multiple testing. Termite survival data were analyzed by Cox Regression Analysis. Flow histogram SDs were calculated using software produced half-peak coefficients of variance (% HPCV×mean). Data are presented as means±SD.

other β-glucanases = assay: β(1,3)-glucanase activity assay, tGNBP-2-depleted termite lysate; assay type: biochemical, N. corniger; conditions: tGNBP-2-depleted lysate, FIG. 5C
Procedure: as §1

tGNBP-2 [5] = assay: In-vitro binding interference assay with FITC-labeled LPS; set-up: species or system N. corniger; conditions: increasing concentrations, FIG. 5A
Procedure: Isolated tGNBP-2 or rhCD14 (R&D Systems, Minneapolis, Minn.) were linked to 3.0μ diameter polystyrene beads (Polysciences) by a 3-hour incubation in boric acid (0.1M, pH 8.5) followed by 3 washes in cold PBS containing 0.1% v/v rabbit serum. Formaldehyde-inactivated pathogenic strains were labeled with FITC as previously described (41). Beads were incubated with labeled pathogens in buffer at 37° C. for 30 minutes and analyzed by flow cytometry. For interference assays, tGNBP-2-adsorbed beads were incubated with either LPS or laminarin at various concentrations, then directly stained with FITC-labeled LPS (Sigma) and analyzed by FACS.

tGNBP-2 expression [6] = assay: tGNBP-2 expression following exposure of termites to LPS or laminarin; assay type: in vivo, N. corniger; conditions: 0.5 or 5 mg/mL, FIG. 4F
Procedure: Anti-tGNBP-2 antibodies were raised in rabbits and purified by standard methods (GenScript, Piscataway, N.J.). Antibodies were covalently linked to 1.0μ diameter Dynabeads® MyOne™ carboxylic acid functionalized magnetic beads (Invitrogen) according to the manufacturer's instructions. Fresh termite extract was diluted 1:1 with IP buffer (25 mM Tris-HCl pH 7.6, 150 mM NaCl, 1% v/v NP-40, 1% v/v protease inhibitor cocktail), and incubated with beads for 1 hour at RT. Beads were isolated, washed with IP buffer, and eluted with a commercial neutral pH buffer (Pierce, Rockford, Ill.). Eluate was desalted and concentrated using a centrifugal column (Vivaspin 10K, Sartorius, Goettingen, Germany) and reconstituted in sodium acetate (0.1M, pH 5.5). SDS-PAGE and western blots were performed and developed by standard procedures; loading amounts were validated by BCA assay. Anti-tGNBP-2 was used at 2.5 μg/mL followed by anti-rabbit HRP (Cell Signaling) at 1:1000. Blots were visualized on a Kodak ImageStation 2000R. […] Conidia (approx. 3×10^7/mL) were centrifuged at 12,000×g for 1 minute and then suspended in 600 μL 0.1% Tween 80 by vortexing. Two groups of 12 large workers were exposed to filter paper (Watman 5) moistened with these suspensions in 35×15 mm petri dishes for 20 hours. […]

| Compound | blocking of the β(1,3)-glucanase activity of tGNBP-2 (tGNBP-2 [1]) | blocking of gut symbiont pathways for polysaccharide utilization (termite gut symbionts) | induction of tGNBP-2 by laminarin challenge (tGNBP-2 expression [2]) | direct toxic effect on conidia (M. anisopliae conidia) | hemocyte population whose activation is affected ([3]; two hemocyte populations expressing tGNBP-2) | SAPK/JNK phosphorylation activation response of hemocytes ([3]; β(1,3)-D-glucan challenge, FIG. 5D) | susceptibility to infection with tGNBP-2-treated conidia ([4]; conidia treated with isolated tGNBP-2 prior to infection) | mortality of termites in the absence of active infection ([4]; no infection) | mortality of termites infected with M. anisopliae ([4]; treated for 24 hours prior to infection, FIG. 6) | effect on other β-glucanases (other β-glucanases) | interference with fluorescent LPS binding to bead-linked tGNBP-2 (tGNBP-2 [5]) | tGNBP-2 expression following exposure (tGNBP-2 expression [6]) | resistance to M. anisopliae infection ([4]; termites exposed to 0.5 or 5 mg/mL for 24 hours prior to conidia, FIG. 4E) |
| --- | --- | --- | --- | --- | --- | --- | --- | --- | --- | --- | --- | --- | --- |
| O=C1O[C@H](CO)[C@@H](O)[C@H](O)[C@H]1O [GDL, D-δ-gluconolactone] | efficiently blocked | not blocked | blocks induction | no direct toxic effect | affected only the activation of granular hemocytes | inhibited this activation response | restored susceptibility to infection | caused accelerated mortality | accelerated mortality | left other β-glucanases intact | – | – | – |
| laminarin | – | – | – | – | – | – | – | – | – | – | does not interfere | significant upregulation | improved resistance |
